Patent US11530244B2, “Cyclic polypeptides for PCSK9 inhibition” (priority 2018, dated 2022)
Starred links: 1 amine or outer side, 2 acyl side, 3 side chain; linkers in the order of their positions; H or OH if unused. Positions of bridges follow the written chain, without caps; N, C: chain ends. Non-standard residues stand in square brackets, D forms with d. Residues, ends and D or L forms follow the SMILES beside them. Groups on a side chain read outwards from the residue. ξ: configuration not given here. *: point of attachment. Pro(3R,4S-CMe2) = CC1(C)[C@@H]2[C@@H](C(=O)O)NC[C@@H]21; Ala(benzothiazol-2-yl) = N[C@@H](Cc1nc2ccccc2s1)C(=O)O; X52 = O=C([C@H](Cc1cc2cc(F)ccc2[nH]1)N[*:1])[*:2]; Pro(4R-Bn) = O=C(O)[C@@H]1C[C@@H](Cc2ccccc2)CN1; Trp(5-F) = N[C@@H](Cc1c[nH]c2ccc(F)cc12)C(=O)O; Trp(7-aza) = N[C@@H](Cc1c[nH]c2ncccc12)C(=O)O; NMePhe(4-F) = CN[C@@H](Cc1ccc(F)cc1)C(=O)O; X3 = O=C(CCSCc1cc(F)cc(CSCCN[*:1])c1)[*:2]; Bip = N[C@@H](Cc1ccc(-c2ccccc2)cc1)C(=O)O; αMeW = C[C@](N)(Cc1c[nH]c2ccccc12)C(=O)O; X4 = O=C(CCSCc1cccc(CSCCN[*:1])c1)[*:2]; γGlu = O=C(O)[C@H](CCC(=O)[*:2])N[*:1]; 1Nal = N[C@@H](Cc1cccc2ccccc12)C(=O)O; mXylylene = c1cc(C[*:1])cc(C[*:2])c1; NMeY = CN[C@@H](Cc1ccc(O)cc1)C(=O)O; Palmitoyl = CCCCCCCCCCCCCCCC(=O)*; hPhe = N[C@@H](CCc1ccccc1)C(=O)O; ξAEF = NCCOc1ccc(CC(N)C(=O)O)cc1; NMeD = CN[C@@H](CC(=O)O)C(=O)O; αMeK = C[C@](N)(CCCCN)C(=O)O; αMeP = C[C@@]1(C(=O)O)CCCN1; OBn = c1ccc(CO*)cc1; βAla = NCCC(=O)O; Mpa = O=C(O)CCS; Sar = CNCC(=O)O

Target: human PCSK9 / human LDLR EGFa domain interaction (Homo sapiens (Human), UniProt Q8NBP7)
Test: TR-FRET assay of inhibition of the PCSK9-LDLR protein-protein interaction
Format: binding
Conditions: TR-FRET, 20 nM human PCSK9, 20 nM human LDLR EGFa domain, 2 hours room temperature; read-out: IC50
Method: A time-resolved fluorescence resonance energy (TR-FRET) assay was used to measure inhibition of the PCSK9-LDLR protein-protein interaction. Briefly, 20 nM avitag-biotinylated human PCSK9 was incubated with 20 nM his-tagged human LDLR EGFa domain in the presence of 5 nM LANCE Ulight Streptavidin (Perkin Elmer) and 5 nM europium-Anti-6×His (Perkin Elmer) for 2 hours covered at room temperature in buffer containing 50 mM HEPES, 150 mM NaCl, 5 mM CaCl2), 0.01% BSA and 0.01% Surfactant P20. Compounds were tested in dose-response and concentrations giving half-maximal inhibition calculated using a 4-parameter fit equation.

Sequence of human PCSK9 / human LDLR EGFa domain interaction (Q8NBP7 153-692): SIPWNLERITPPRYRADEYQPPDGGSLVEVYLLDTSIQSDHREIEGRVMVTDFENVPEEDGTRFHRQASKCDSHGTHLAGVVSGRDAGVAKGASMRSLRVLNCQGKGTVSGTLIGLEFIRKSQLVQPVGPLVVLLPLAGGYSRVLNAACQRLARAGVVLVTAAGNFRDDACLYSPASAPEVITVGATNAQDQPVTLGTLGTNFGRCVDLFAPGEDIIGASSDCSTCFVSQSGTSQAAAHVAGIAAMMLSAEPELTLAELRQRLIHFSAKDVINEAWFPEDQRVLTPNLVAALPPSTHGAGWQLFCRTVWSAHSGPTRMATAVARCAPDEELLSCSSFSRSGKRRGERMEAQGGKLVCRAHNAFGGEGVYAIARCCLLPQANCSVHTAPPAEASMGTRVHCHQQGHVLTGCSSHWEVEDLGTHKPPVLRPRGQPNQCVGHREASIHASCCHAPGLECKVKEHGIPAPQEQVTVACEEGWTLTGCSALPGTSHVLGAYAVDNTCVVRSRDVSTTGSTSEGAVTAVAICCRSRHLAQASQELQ
Sequence of human PCSK9 / human LDLR EGFa domain interaction (Q8NBP7 31-152 partner): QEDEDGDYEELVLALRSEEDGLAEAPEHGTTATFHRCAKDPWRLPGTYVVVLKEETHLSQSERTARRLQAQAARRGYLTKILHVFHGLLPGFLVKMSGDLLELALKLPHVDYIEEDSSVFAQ

Compound | IC50
CC(=O)N[C@H]1CSCc2cccc(c2)CSC[C@@H](C(N)=O)NC(=O)[C@@H]2CCCN2C(=O)[C@H](Cc2ccc(O)cc2)NC(=O)[C@H](Cc2cnc[nH]2)NC(=O)[C@H](CC(=O)O)NC(=O)[C@H](Cc2c[nH]c3ccc(F)cc23)NC(=O)[C@H](Cc2c[nH]c3ccc(F)cc23)NC(=O)CNC(=O)[C@H](CCCCN)NC1=O [Compound 148] (Ac-CKG[Trp(5-F)][Trp(5-F)]DHYPC-NH2; linker 1-10 via mXylylene) | 100 to 1000 nM
CN1CC(=O)N[C@@H](Cc2c[nH]c3ccccc23)C(=O)N[C@@H](Cc2c[nH]c3ccccc23)C(=O)N(C)[C@@H](CC(=O)O)C(=O)N[C@@H](Cc2cnc[nH]2)C(=O)N(C)[C@@H](Cc2ccc(O)cc2)C(=O)N2CCC[C@H]2C(=O)N[C@H](C(N)=O)CSCc2cccc(c2)CSCCC(=O)N[C@@H](CCCCN)C1=O [Compound 221] ([Mpa]K[Sar]WW[NMeD]H[NMeY]PC-NH2; linker 1-10 via mXylylene) | 21000 to 50000 nM
C[C@@]1(Cc2c[nH]c3ccccc23)NC(=O)CNC(=O)[C@H](CCCCN)NC(=O)CCSCc2cccc(c2)CSC[C@@H](C(N)=O)NC(=O)[C@@H]2CCCN2C(=O)[C@H](Cc2ccc(O)cc2)NC(=O)[C@H](Cc2c[nH]cn2)NC(=O)[C@H](CC(=O)O)NC(=O)[C@H](Cc2c[nH]c3ccc(F)cc23)NC1=O [Compound 212] ([Mpa]KG[αMeW][Trp(5-F)]DHYPC-NH2; linker 1-10 via mXylylene) | 100 to 1000 nM
NCCCC[C@@H]1NC(=O)CCSCc2cccc(c2)CSC[C@@H](C(N)=O)NC(=O)[C@@H]2CCCN2C(=O)[C@H](Cc2ccc(O)cc2)NC(=O)[C@H](Cc2c[nH]cn2)NC(=O)[C@H](CC(=O)O)NC(=O)[C@H](Cc2c[nH]c3ccc(F)cc23)NC(=O)[C@H](Cc2cccc3ccccc23)NC(=O)CNC1=O [Compound 209] ([Mpa]KG[1Nal][Trp(5-F)]DHYPC-NH2; linker 1-10 via mXylylene) | 1000 to 12100 nM
C[C@@H]1NC(=O)[C@H](CCCCN)NC(=O)CCSCc2cccc(c2)CSC[C@@H](C(N)=O)NC(=O)[C@@H]2CCCN2C(=O)[C@H](Cc2ccc(O)cc2)NC(=O)[C@H](Cc2cnc[nH]2)NC(=O)[C@H](CC(=O)O)NC(=O)[C@H](Cc2c[nH]c3ccc(F)cc23)NC(=O)[C@H](Cc2c[nH]c3ccc(F)cc23)NC1=O [Compound 156] ([Mpa]KA[Trp(5-F)][Trp(5-F)]DHYPC-NH2; linker 1-10 via mXylylene) | 1000 to 12100 nM
C[C@H]1NC(=O)[C@H](CCCCN)NC(=O)CCSCc2cccc(c2)CSCCNC(=O)[C@]2(C)CCCN2C(=O)[C@H](Cc2c[nH]c3ncccc23)NC(=O)[C@H](Cc2cnc[nH]2)NC(=O)[C@H](CC(=O)O)NC(=O)[C@H](Cc2c[nH]c3ccc(F)cc23)NC(=O)[C@H](Cc2c[nH]c3ccc(F)cc23)NC1=O [Compound 247] (cyclo(DH[Trp(7-aza)][αMeP][X4]K[dA][Trp(5-F)][Trp(5-F)])) | 100 to 1000 nM
CN1CC(=O)N[C@H](C(N)=O)CSCc2cccc(c2)CSCCC(=O)N[C@@H](CCCCN)C(=O)NCC(=O)N[C@@H](Cc2c[nH]c3ccc(F)cc23)C(=O)N[C@@H](Cc2c[nH]c3ccc(F)cc23)C(=O)N[C@@H](CC(=O)O)C(=O)N[C@@H](Cc2cnc[nH]2)C(=O)N[C@@H](Cc2ccc(O)cc2)C1=O [Compound 194] ([Mpa]KG[Trp(5-F)][Trp(5-F)]DHY[Sar]C-NH2; linker 1-10 via mXylylene) | 21000 to 50000 nM
CC(=O)N[C@@H](Cc1cnc[nH]1)C(=O)N(C)[C@@H](Cc1ccc(F)cc1)C(=O)N[C@H]1CSCc2cccc(c2)CSC[C@@H](C(N)=O)NC(=O)[C@@H]2CCCN2C(=O)[C@H](Cc2ccc(O)cc2)NC(=O)[C@H](Cc2cnc[nH]2)NC(=O)[C@H](CC(=O)O)NC(=O)[C@H](Cc2c[nH]c3ccc(F)cc23)NC(=O)[C@H](Cc2c[nH]c3ccc(F)cc23)NC(=O)CNC(=O)[C@H](CCCCN)NC1=O [Compound 146] (Ac-H[NMePhe(4-F)]CKG[Trp(5-F)][Trp(5-F)]DHYPC-NH2; linker 3-12 via mXylylene) | 0.1 to 100 nM
CCCCCCCCCCCCCCCC(=O)N[C@@H](CCC(=O)N[C@@H](CCC(=O)NCCCC[C@@H]1NC(=O)CCSCc2cccc(c2)CSC[C@@H](C(N)=O)NC(=O)[C@]2(C)CCCN2C(=O)[C@H](Cc2ccc(O)cc2)NC(=O)[C@H](Cc2c[nH]cn2)NC(=O)[C@H](CC(=O)O)NC(=O)[C@H](Cc2c[nH]c3ccc(F)cc23)NC(=O)[C@H](Cc2c[nH]c3ccc(F)cc23)NC(=O)CNC1=O)C(=O)O)C(=O)O [Compound 283] ([Mpa]K([γGlu-γGlu-Palmitoyl])G[Trp(5-F)][Trp(5-F)]DHY[αMeP]C-NH2; linker 1-10 via mXylylene) | 21000 to 50000 nM
COc1ccc(C[C@@H]2NC(=O)CCNC(=O)[C@@H]3CCCN3C(=O)[C@H](Cc3c[nH]c4ccc(F)cc34)NC(=O)[C@H](Cc3cc4cc(F)ccc4[nH]3)NC(=O)[C@@H](C)NC(=O)[C@H](CCCCN)NC(=O)CCSCc3cccc(c3)CSCCNC(=O)[C@]3(C)CCCN3C2=O)cc1 [Compound 003] (cyclo(K[dA][X52][Trp(5-F)]P[βAla]Y(Me)[αMeP][X4])) | 1000 to 12100 nM
CC(=O)N[C@@H]1CC(=O)NCCOc2ccc(cc2)CC(C(N)=O)NC(=O)[C@]2(C)CCCN2C(=O)[C@H](Cc2ccc(O)cc2)NC(=O)[C@H](Cc2cnc[nH]2)NC(=O)[C@H](CC(=O)OCc2ccccc2)NC(=O)[C@H](Cc2c[nH]c3ccc(F)cc23)NC(=O)[C@H](Cc2c[nH]c3ccc(F)cc23)NC(=O)CNC1=O (some centres unmarked) [Compound 321] (Ac-[dD]G[Trp(5-F)][Trp(5-F)]D(OBn)HY[αMeP][ξAEF]-NH2; lactam 1-9) | 100 to 1000 nM
NCCCC[C@@H]1NC(=O)CCSCc2cccc(c2)CSC[C@@H](C(N)=O)NC(=O)[C@@H]2CCCN2C(=O)[C@H](Cc2nc3ccccc3s2)NC(=O)[C@H](Cc2c[nH]cn2)NC(=O)[C@H](CC(=O)O)NC(=O)[C@H](Cc2c[nH]c3ccc(F)cc23)NC(=O)[C@H](Cc2c[nH]c3ccc(F)cc23)NC(=O)CNC1=O [Compound 266] ([Mpa]KG[Trp(5-F)][Trp(5-F)]DH[Ala(benzothiazol-2-yl)]PC-NH2; linker 1-10 via mXylylene) | 21000 to 50000 nM
NCCCC[C@@H]1NC(=O)CCSCc2cccc(c2)CSC[C@@H](C(N)=O)NC(=O)[C@@H]2C[C@@H](Cc3ccccc3)CN2C(=O)[C@H](Cc2ccc(O)cc2)NC(=O)[C@H](Cc2c[nH]cn2)NC(=O)[C@H](CC(=O)O)NC(=O)[C@H](Cc2c[nH]c3ccc(F)cc23)NC(=O)[C@H](Cc2c[nH]c3ccc(F)cc23)NC(=O)CNC1=O [Compound 294] ([Mpa]KG[Trp(5-F)][Trp(5-F)]DHY[Pro(4R-Bn)]C-NH2; linker 1-10 via mXylylene) | 100 to 1000 nM
CC1(C)[C@@H]2[C@H]3C(=O)N[C@H](C(N)=O)CSCc4cccc(c4)CSCCC(=O)N[C@@H](CCCCN)C(=O)NCC(=O)N[C@@H](Cc4c[nH]c5ccc(F)cc45)C(=O)N[C@@H](Cc4c[nH]c5ccc(F)cc45)C(=O)N[C@@H](CC(=O)O)C(=O)N[C@@H](Cc4c[nH]cn4)C(=O)N[C@@H](Cc4ccc(O)cc4)C(=O)N3C[C@@H]21 [Compound 201] ([Mpa]KG[Trp(5-F)][Trp(5-F)]DHY[Pro(3R,4S-CMe2)]C-NH2; linker 1-10 via mXylylene) | 1000 to 12100 nM
NCCCC[C@@H]1NC(=O)CCCCn2cc(nn2)CC[C@@H](C(N)=O)NC(=O)[C@@H]2CCCN2C(=O)[C@H](Cc2ccc(O)cc2)NC(=O)[C@H](Cc2c[nH]cn2)NC(=O)[C@H](CC(=O)O)NC(=O)[C@H](Cc2c[nH]c3ccc(F)cc23)NC(=O)[C@H](Cc2c[nH]c3ccc(F)cc23)NC(=O)CNC1=O [Compound 185] | 0.1 to 100 nM
C[C@H]1NC(=O)[C@H](CCCCN)NC(=O)CCSCc2cc(F)cc(c2)CSCCNC(=O)[C@]2(C)CCCN2C(=O)[C@H](Cc2ccc(O)cc2)NC(=O)[C@H](Cc2cnc[nH]2)NC(=O)[C@H](CC(=O)O)NC(=O)[C@H](Cc2c[nH]c3ccc(F)cc23)NC(=O)[C@H](Cc2c[nH]c3ccc(F)cc23)NC1=O [Compound 289] (cyclo(DHY[αMeP][X3]K[dA][Trp(5-F)][Trp(5-F)])) | 21000 to 50000 nM
C[C@@H]1NC(=O)CCSCc2cccc(c2)CSC[C@@H](C(N)=O)NC(=O)[C@]2(C)CCCN2C(=O)[C@H](Cc2ccc(O)cc2)NC(=O)[C@H](Cc2cnc[nH]2)NC(=O)[C@H](CC(=O)O)NC(=O)[C@H](Cc2c[nH]c3ccc(F)cc23)NC(=O)[C@H](Cc2c[nH]c3ccc(F)cc23)NC(=O)CNC1=O [Compound 308] ([Mpa]AG[Trp(5-F)][Trp(5-F)]DHY[αMeP]C-NH2; linker 1-10 via mXylylene) | 1000 to 12100 nM
C[C@@]1(CCCCN)NC(=O)CCSCc2cccc(c2)CSC[C@@H](C(N)=O)NC(=O)[C@@H]2CCCN2C(=O)[C@H](Cc2ccc(O)cc2)NC(=O)[C@H](Cc2c[nH]cn2)NC(=O)[C@H](CC(=O)O)NC(=O)[C@H](Cc2c[nH]c3ccc(F)cc23)NC(=O)[C@H](Cc2c[nH]c3ccc(F)cc23)NC(=O)CNC1=O [Compound 214] ([Mpa][αMeK]G[Trp(5-F)][Trp(5-F)]DHYPC-NH2; linker 1-10 via mXylylene) | 1000 to 12100 nM
NCCCC[C@@H]1NC(=O)CCSCc2cccc(c2)CSC[C@@H](C(N)=O)NC(=O)[C@@H]2CCCN2C(=O)[C@H](Cc2ccc(-c3ccccc3)cc2)NC(=O)[C@H](Cc2c[nH]cn2)NC(=O)[C@H](CC(=O)O)NC(=O)[C@H](Cc2c[nH]c3ccc(F)cc23)NC(=O)[C@H](Cc2c[nH]c3ccc(F)cc23)NC(=O)CNC1=O [Compound 243] ([Mpa]KG[Trp(5-F)][Trp(5-F)]DH[Bip]PC-NH2; linker 1-10 via mXylylene) | 1000 to 12100 nM
NCCCC[C@@H]1NC(=O)CCSCc2cccc(c2)CSC[C@@H](C(N)=O)NC(=O)[C@@H]2CCCN2C(=O)[C@H](Cc2ccc(O)cc2)NC(=O)[C@H](Cc2c[nH]cn2)NC(=O)[C@H](CC(=O)O)NC(=O)[C@H](Cc2c[nH]c3ccc(F)cc23)NC(=O)[C@H](CCc2ccccc2)NC(=O)CNC1=O [Compound 211] ([Mpa]KG[hPhe][Trp(5-F)]DHYPC-NH2; linker 1-10 via mXylylene) | 1000 to 12100 nM
